Tested on: Tetrahymena pyriformis
Test: 48 h IGC50 (-log10 mol/L); higher = more toxic

Structure (SMILES) | 48 h IGC50 (-log10 mol/L)
Fc1ccc(-c2ccccc2)cc1 | 3.53
C=CC(=O)OCCCCC | 3.54
CCCCCCCl | 3.78
S=C=NCc1cccc2ccccc12 | 6.06
CCC(=O)C(=O)CC | 2.99
CC(C)(C)OC=O | 1.63
CCCCCCCCCCOC(=O)CC#N | 4.7
CCOC(=O)CCBr | 3.13
Nc1ccc(O)c(N)c1 | 3.13
CC(C)(C)c1ccc(O)cc1 | 3.91
C=CC(=O)CC | 4.52
Nc1cc(Cl)c([N+](=O)[O-])cc1O | 4.17
CCCCCC(C)O (stereo not drawn) | 2.53
CC(C)OC(=O)CC#N | 2.05
Cc1cc(O)cc(C)c1Br | 4.27
O=C(c1ccccc1)C(F)(F)F | 2.99
CCCCCCC(=O)CCCCCC | 4.52
CC(C)c1ccccc1N | 3.12
COc1ccc([N+](=O)[O-])cn1 | 2.99
CCCCCCN=C=S | 4.75
COC(=O)CCBr | 4.03
O=C(/C=C/c1ccccc1)N=C=S | 3.29
O=Cc1ccc(Cl)o1 | 3.07
C=C(C)CCC(C)=O | 2.12

Structure (SMILES) | 48 h IGC50 (-log10 mol/L)
Cc1ccccc1C#N | 2.76
C#CCCCO | 1.58
Cc1ccc(N)cc1C | 2.84
CCCCS(=O)(=O)CCCC | 2.74
CCCCCCC(O)CC (stereo not drawn) | 3.36
O=[N+]([O-])c1ccc(Cl)nc1 | 3.8
O=Cc1ccoc1 | 3
CC(=O)c1ccc(O)cc1C | 3.19
OCCCCCl | 2.24
O=[N+]([O-])c1ccc(Br)cc1 | 3.38
CC(O)C(c1ccccc1)c1ccccc1 (stereo not drawn) | 3.75
Nc1cccc([N+](=O)[O-])c1 | 3.03
CC(C)(C)OC(=O)CCl | 3.85
CCC#CC(=O)OCC | 3.82
N#CC(C#N)=Cc1ccco1 | 3.94
O=C(CCl)CCl | 5.05
CCCCC(=O)OCC | 2.64
C=CC(=O)OC | 3.55
CC/C=C\CCCCCC=O | 3.95
CCCCOC(=O)/C=C/c1ccccc1 | 4.53
c1cn[nH]c1 | 1.29
CS(C)=O | 0.548
CCCCCCCCCCC#CCCO | 5.38
C=COC(=O)CCC | 2.62

Structure (SMILES) | 48 h IGC50 (-log10 mol/L)
O=Cc1c(O)cc(O)cc1O | 3.13
OC(CCl)CCl | 2.21
CC(=O)OC1=CCCCC1 | 2.6
Cc1cccc(C)c1N | 2.57
N#CCC(=O)OC1CCCCC1 | 2.91
CCCC(C)N (stereo not drawn) | 2.31
O=[N+]([O-])c1cc(I)c(O)c(I)c1 | 4.81
N#Cc1cc([N+](=O)[O-])cc([N+](=O)[O-])c1 | 4.22
CCCCCC(=O)OC | 2.44
C[C@H](N=C=S)c1ccccc1 | 5.7
CN(C)Cc1cc(CN(C)C)c(O)c(CN(C)C)c1 | 2.48
CCOC(=O)Cc1cccnc1 | 2.06
NC(=O)c1cccc([N+](=O)[O-])c1 | 2.81
Oc1c(Cl)cc(Br)cc1Cl | 4.78
C=C(C)C(=O)OCC | 2.07
Nc1c(Br)cc(Cl)cc1Br | 4.52
CC/C=C/CBr | 3.77
CCCOC(=O)c1ccccc1 | 3.42
N#CCCCCl | 2.07
CCCCCCCCCl | 3.67
O=C(O)c1c(Cl)cccc1Cl | 2.33
Cc1ccsc1 | 2.3
Oc1cccc(O)c1O | 3.85
CC(N)c1ccccc1 (stereo not drawn) | 2.82

Structure (SMILES) | 48 h IGC50 (-log10 mol/L)
CCC#CC(O)CC (stereo not drawn) | 2.97
CCN(C)C | 2.09
O=C(CBr)C(=O)CBr | 4.76
CCCCCCCS | 4.02
O=C(O)Cc1ccc(O)cc1 | 1.5
CCCC#CCCO | 2.68
OCCCCCCc1ccccc1 | 3.87
O=C(OCCO)c1ccccc1O | 2.92
CCCCCCC#CCO | 3.65
O=C(O)c1cc(Cl)cc(Cl)c1 | 3.27
O=C(c1ccccc1)c1ccccc1O | 4.23
CSc1ccccc1 | 3.18
CCCCC#CC(=O)OCC | 4.11
Oc1ccc(Cl)c(O)c1 | 3.13
CC(=O)c1ccc(O)cc1O | 3.25
O=Cc1cccc2ccccc12 | 3.42
CCC#CCC(C)O (stereo not drawn) | 2.38
CCCCCCOc1ccc(N)cc1 | 4.38
OCCBr | 2.15
CC/C=C/CC(=O)O | 2.78
OCC#CCO | 1.12
Cc1c(C)c(O)c(C)c(C)c1O | 4.28
OCC(Cl)Cl | 2.01
CC(=O)c1cc(C)ccc1O | 3.31

Structure (SMILES) | 48 h IGC50 (-log10 mol/L)
OCCCCCCBr | 3.01
CCCCCCCC#N | 3.28
Clc1cccc2ccccc12 | 3.81
CCCCCCCCCCC(=O)OC | 4.42
CCc1ccccc1O | 3.16
C=CSc1ccccc1 | 3.42
O=C/C=C/c1ccccc1 | 3.68
C=CC(=O)CCC | 4.66
NC(=O)c1cccs1 | 2.03
O=[N+]([O-])/C=C/c1ccco1 | 5.04
COC(=O)CCCBr | 3.07
O=C(CBr)c1ccccc1 | 5.82
Nc1c([N+](=O)[O-])cc(Cl)cc1[N+](=O)[O-] | 4.15
CCOC(=O)C(NC(C)=O)C(=O)OCC | 1.8
CCCCC(C(=O)OCC)C(=O)OCC | 3.56
O=[N+]([O-])c1cc(Cl)c(Cl)c(Cl)c1Cl | 4.78
Oc1cccc(Cl)c1Cl | 4.28
Clc1ccccn1 | 2.16
CCOC(=O)c1ccccn1 | 2.08
OCCc1ccc(Cl)cc1 | 3.32
O=C(O)CCCCl | 2.32
CCCOC(=O)CC | 2.19
CC(C#N)c1ccccc1 (stereo not drawn) | 3.01
CC(C)(C)c1cccc(O)c1 | 3.74

Structure (SMILES) | 48 h IGC50 (-log10 mol/L)
O=[N+]([O-])c1ccccc1F | 3.23
CCC(=O)c1ccc(O)cc1 | 3.12
OC1Cc2ccccc2C1 | 2.31
CCSc1ccccc1 | 3.3
C=CS(=O)c1ccccc1 (stereo not drawn) | 3.16
NNC(=O)Cc1ccccc1 | 2.52
OC12CC3CC(CC(C3)C1)C2 | 2.92
O=Cc1ccc2c(c1)Cc1ccccc1-2 | 4.5
Oc1cc(O)c(Cl)cc1Cl | 3.97
CCCC[N+](=O)[O-] | 2.31
O=C(c1ccc(O)cc1O)c1ccc(O)cc1O | 3.96
COC(=O)CCC(=O)OC | 1.94
N#Cc1ccc[nH]1 | 2.42
O=Cc1cc(C(F)(F)F)cc(Cl)c1F | 4.24
OC(CBr)CBr | 3.57
CCC#CC(C)O (stereo not drawn) | 3.51
CCOC(=O)CCCC(=O)CC(=O)OCC | 2.62
COc1ccc(CO)cc1O | 2.01
c1ccnnc1 | 1.59
O=Cc1ccc(F)cc1 | 2.87
CC(C)(C)c1ccc(CO)cc1 | 3.48
CCCCCOC(C)=O | 3.16
CCCC(CO)CCC | 3.13
CCCCOc1ccc([N+](=O)[O-])cc1 | 4.42

Structure (SMILES) | 48 h IGC50 (-log10 mol/L)
Cc1cc(O)c([N+](=O)[O-])cc1Cl | 4.63
Oc1ccc(F)cc1F | 3.6
Cc1cccc(CO)c1 | 2.76
COc1cccc(C=O)c1 | 3.23
OCC(Br)(Br)Br | 3.11
CCC(=O)OC(C)(C)C | 2.59
CCCCCC1CCC(=O)O1 (stereo not drawn) | 3.01
CC(C)c1ccc(C=O)cc1 | 3.67
NCCCCCO | 1.24
CC(C)(C)c1ccc(O)c(N)c1 | 3.37
N#Cc1cccc(Cl)c1 | 2.94
C=C(C)CCO | 1.82
CCOC(=O)C(Br)C(C)Br (stereo not drawn) | 4.44
NC(=O)CI | 4.85
CCC(=O)CC(=O)CC | 2.62
CCCCCCC#CC(=O)OCC | 4.38
Oc1cccc(Br)c1 | 4.15
CC#CCOC(C)=O | 2.12
Oc1ccccc1-c1ccccc1O | 3.88
CCc1cc(O)ccc1Cl | 4.08
N#Cc1ccccc1Cl | 3.28
O=C1C=C(c2ccccc2)C(=O)C=C1c1ccccc1 | 4.48
O=[N+]([O-])c1ccccc1CO | 2.85
Clc1ccc(Br)s1 | 3.75

From EPA's aquatic toxicity sets
